From patent US9073916B2, “Prodrug forms of kinase inhibitors and their use in therapy” (AUCKLAND UNISERVICES LIMITED, priority 2009, dated 2015)
Like-named read-outs stand apart in the source and are kept apart here.

Tests used:
[1] = Solubility by HPLC; details: α-MEM cell culture medium
[2] = tested on: SW620 cells; test: Cellular growth inhibition (sulforhodamine B); format: cell-based, Human; details: Table 3
[3] = Steady state radiolytic reduction by the CO2.− radical with HPLC-MS; format: physicochemical
[4] = tested on: SKOV3 cells; test: Cellular growth inhibition (sulforhodamine B); format: cell-based, Human; details: Table 9; for IC50: Homo sapiens, SK-OV-3
Method: Human A431, H1975 and SKOV3 carcinoma cells in log phase exponential growth in alpha minimal essential media (αMEM) containing 5% fetal bovine serum (FBS), were harvested by trypsinisation (1× trypsin/EDTA, Gibco Brl), counted, and seeded into 96 well plates (Nunc) at cell densities ranging from 800-1500 cells/well. Half of the cell samples were seeded into plates that were pre-equilibrated and held in an anoxic environment (90% N2, 5% H2, 5% CO2, 37° C.; Anaerobic chamber, Coy Laboratory Products). […] At the end of this period the anoxic plates were recovered from the anaerobic camber and held under normoxia in a standard CO2 incubator (37° C.) for 20 hours. All plates were washed free of compound and cells were allowed to proliferate for a further 4 days in αMEM containing 5% FBS+antibiotics. Cells were fixed in trichloroacteic acid (30 min), washed and stained with sulforhodamine B (SRB, 60 min) prior to washing in acidified water. SRB was solubilised and absorption read at 450 nm to calculate cell densities. Inhibition of proliferation was calculated relative to untreated control wells.

[5] = HPLC-MS at 0.95 reducing equivalents

Compound | solubility [1] [µM] | SW620 Deact. [2] [fold] | SW620 HCR [2] [fold] | IC50 ([2]; 24 hour exposure entirely oxic, read-out: Cellular Growth Inhibition IC50 SW620 Oxic) [µM] | IC50 ([2]; first 4 hours anoxic, read-out: Cellular Growth Inhibition IC50 SW620 Anoxic) [µM] | Effector release/Prodrug loss ([3]; 0.95 reducing equivalents) | Detection of MNA (methyl nitroaromatic) ([3]; HPLC-MS) | % Loss of prodrug [3, 5] [%] | % Release of effector [3, 5] [%] | release of effector following 1-electron reduction ([3]; steady state radiolysis, HPLC-MS) | effector AUC as share of prodrug AUC (compound 11 in plasma after dosing prodrug 20) | AUC0-250 min Effector (effector (compound 11) in plasma after dosing prodrug) [µM·h] | AUC0-250 min Parent (plasma, IP, 42% of single dose MTD, predicted from modelled curves) [µM·h] | IC50 ([4]; 24 hour exposure oxic, read-out: Cellular Growth Inhibition IC50 SKOV3 Oxic) [µM] | IC50 ([4]; first 4 hours anoxic, read-out: Cellular Growth Inhibition IC50 SKOV3 Anoxic) [µM] | SKOV3 Deact. [4] [fold] | SKOV3 HCR [4] [fold]
Cn1cnc([N+](=O)[O-])c1C[N+](C)(C)C/C=C/C(=O)Nc1ccc2ncnc(Nc3cccc(Br)c3)c2c1.[Br-] [Compound 20, (2E)-4-{[4-(3-bromoanilino)-6-quinazolinyl]amino}-N,N-dimethyl-N-[(1-methyl-4-nitro-1H-imidazol-5-yl)methyl]-4-oxo-2-buten-1-ammonium bromide] | 1112 | 18 | 3.1 | 63.3 | 20.2 | 1.00 | Yes | 55 | 55 | released effector (compound 11) detected | one | 2.7 | 279 | – | – | – | –
Cn1cnc([N+](=O)[O-])c1C[N+](C)(C)C/C=C/C(=O)Nc1cc2c(Nc3ccc(F)c(Br)c3)ncnc2cn1 [Compound 42, (2E)-4-{[4-(3-bromo-4-fluoroanilino)pyrido[3,4-d]pyrimidin-6-yl]amino}-N,N-dimethyl-N-[(1-methyl-4-nitro-1H-imidazol-5-yl)methyl]-4-oxo-2-buten-1-ammonium bromide] | – | – | – | – | – | – | – | – | – | – | – | – | – | 35.5 | 2.85 | 42 | 20.3
